Patent publication US10975352B2, “Methods of enhancing cell survival of stem cells” (The Scripps Research Institute, priority 2008, dated 2021)

Experiments:
hESCs [1] = assay: ALP positive colony formation / low-density survival assay of dissociated hESCs on Matrigel; format: cell-based, human; settings: adherent culture (e.g. Matrigel-coated plate)
Description: Human ESC lines H1, HUES7 and HUES9 were cultured on irradiated MEF feeder cells in DMEM-F12 supplemented with 2 mM L-glutamine, lx nonessential amino acids, 20% serum replacement (Invitrogen) and 10 ng/ml basic Fibroblast growth factor (Invitrogen). Chemically-defined and feeder-free hESC culture was described previously (Yao, S. et al., Proc Natl Acad Sci USA 103 (18):6907-6912 (2006)). Briefly, hESCs were grown on Matrigel-coated tissue culture plates in N2B27-CDM (DMEM-F12 supplemented with 1×N2 supplements, lx B27 supplements, 2 mM L-glutamine, 0.11 mM 2-mercaptoethanol, lx nonessential amino acids, and 0.5 mg/ml BSA (fraction V)) and 20 ng/ml bFGF. Human ESCs were passaged every 5-6 days with 0.05% trypsin.
For clonal survival assays, single hESCs were diluted to clonal density and plated onto 96-well Matrigel-coated plate. For low-density survival assays, 500 cells were plated onto 96-well Matrigel-coated plate. To visualize hESC colonies, cultures were fixed in 4% paraformaldehyde in PBS for 5 min, washed once in PBS, then stained for alkaline phosphatase activity as described in manufacturer's instructions. ALP positive colonies were counted on an inverted microscope.
ALP detection kit and integrin antibodies were from Chemicon. AG825 (Erb2 inhibitor), AG1478 (EGFR inhibitor), PPP (IGFR1 inhibitor) were purchased from Calbiochem. Antibodies raised against the intracytoplasmic tail of E-cadherins (Transduction Laboratories, Lexington, Ky.) were used for immunoprecipitation. The antibody TS2/16 was from Pierce. Antibodies to the extracellular domain of E-cadherin molecule were from Zymed (Carlsbad). Antibodies against extracellular signal-regulated kinase/MAPK, EGFR1, ERB2, GADPH and phosphorylated form of AKT were from Cell Signaling. Mouse monoclonal anti-phosphotyrosine (4G-10 clone) was from Upstate Biotechnology. Ptn and Tzv were added to culture medium at 2 μM. […]

[2] = system: primary human pancreatic islets/beta cells; assay: Cell death of dispersed primary human pancreatic islets/beta cells; format: cell-based; settings: plate coated with matrigel or laminin; 1-2 mM in media
Description: For example, the inventors dispersed primary human pancreatic islets/beta cells plated as single cells onto a tissue culture plate that was coated with matrigel or laminin. […] Accordingly, in some embodiments, a compound of the present invention is administered to an individual in need of pancreatic beta and/or islet cells, wherein administration of the compound results in an increase in the number of beta or islet cells in the individual.

[3] = system: epithelial to mesenchymal transition/EMT; assay: Induction of MET / inhibition of EMT; format: cell-based
stem cells = assay: Survival and anti-differentiation of stem cells ex vivo; format: cell-based; settings: human and mouse embryonic, neural, skin, mesenchymal, hematopoietic, stromal and epithelial stem cells; contact immediately after isolation
Text: In some embodiments, the invention provides methods of promoting survival and anti-differentiation in stem cells ex-vivo.

hESCs [4] = assay: Karyotyping (G-banding) of long-term expanded hESCs; format: cell-based, human; settings: more than 20 generations; chemically-defined medium
Description: Teratoma formation experiments were performed by injecting 3-5 million hESCs (maintained in the presence of compounds Tvz or Ptn) under the kidney capsule of nude mice. After 4-5 weeks, all mice developed teratomas, which were removed and then immunohistologically analyzed by The Scripps Research Institute Research Histology Service and Animal Resources. Compounds treated cells were karyotyped by standard G-banding at the Children's Hospital Oakland, Cytogenetics Laboratory. No chromosomal abnormality was found in the 10 randomly picked nuclei.

O=C(NCc1ccccc1)c1csc(Nc2ccncn2)n1 [Tzv, N-benzyl-2-(pyrimidin-4-ylamino)thiazole-4-carboxamide]
survival of dissociated hESCs in adherent culture (hESCs [1]): greatly improved survival
cell death of single primary beta cells [2]: cell death was inhibited
MET induction and EMT inhibition [3]: can induce MET (the reverse of EMT) and inhibit EMT
survival and anti-differentiation of stem cells (stem cells): effective in promoting survival and anti-differentiation
karyotype of hESCs serially passaged in compound-containing medium (hESCs [4]): normal karyotype
